Laboratory results as given in article PMC2761990 (Molecular cancer therapeutics, 2009).

Assays:
[1] = tested on: p53 (S15) phosphorylation; assay: IR-induced p53; type: cell-based, human; conditions: for inhibition of IR-induced p53 (S15) phosphorylation: 1 h after IR
AKT T308 phosphorylation = assay: Radiation-induced AKT T308 phosphorylation; type: cell-based; conditions: Fig. S1B
[2] = tested on: (S136) BAD phosphorylation; type: cell-based; conditions: in vivo and in vitro (Fig. S1C, D)
γ-H2AX (S139) = assay: IR-induced H2AX; type: cell-based, human; conditions: for γ-H2AX levels: 10 Gy
[3] = tested on: (S9) GSK3β phosphorylation; type: cell-based; conditions: in vivo and in vitro (Fig. S1C, D)
[4] = tested on: panel of 60 protein kinases; conditions: cited from earlier work
PI3K (p110β/p85α) = PI3K (p110β/p85α) (Homo sapiens, UniProt P42338); assay: PI3-Kinase HTRF assay; type: biochemical; conditions: read-out: PI3K (p110β/p85α) inhibited
Chain of PI3K (p110β/p85α) (P42338 whole entry): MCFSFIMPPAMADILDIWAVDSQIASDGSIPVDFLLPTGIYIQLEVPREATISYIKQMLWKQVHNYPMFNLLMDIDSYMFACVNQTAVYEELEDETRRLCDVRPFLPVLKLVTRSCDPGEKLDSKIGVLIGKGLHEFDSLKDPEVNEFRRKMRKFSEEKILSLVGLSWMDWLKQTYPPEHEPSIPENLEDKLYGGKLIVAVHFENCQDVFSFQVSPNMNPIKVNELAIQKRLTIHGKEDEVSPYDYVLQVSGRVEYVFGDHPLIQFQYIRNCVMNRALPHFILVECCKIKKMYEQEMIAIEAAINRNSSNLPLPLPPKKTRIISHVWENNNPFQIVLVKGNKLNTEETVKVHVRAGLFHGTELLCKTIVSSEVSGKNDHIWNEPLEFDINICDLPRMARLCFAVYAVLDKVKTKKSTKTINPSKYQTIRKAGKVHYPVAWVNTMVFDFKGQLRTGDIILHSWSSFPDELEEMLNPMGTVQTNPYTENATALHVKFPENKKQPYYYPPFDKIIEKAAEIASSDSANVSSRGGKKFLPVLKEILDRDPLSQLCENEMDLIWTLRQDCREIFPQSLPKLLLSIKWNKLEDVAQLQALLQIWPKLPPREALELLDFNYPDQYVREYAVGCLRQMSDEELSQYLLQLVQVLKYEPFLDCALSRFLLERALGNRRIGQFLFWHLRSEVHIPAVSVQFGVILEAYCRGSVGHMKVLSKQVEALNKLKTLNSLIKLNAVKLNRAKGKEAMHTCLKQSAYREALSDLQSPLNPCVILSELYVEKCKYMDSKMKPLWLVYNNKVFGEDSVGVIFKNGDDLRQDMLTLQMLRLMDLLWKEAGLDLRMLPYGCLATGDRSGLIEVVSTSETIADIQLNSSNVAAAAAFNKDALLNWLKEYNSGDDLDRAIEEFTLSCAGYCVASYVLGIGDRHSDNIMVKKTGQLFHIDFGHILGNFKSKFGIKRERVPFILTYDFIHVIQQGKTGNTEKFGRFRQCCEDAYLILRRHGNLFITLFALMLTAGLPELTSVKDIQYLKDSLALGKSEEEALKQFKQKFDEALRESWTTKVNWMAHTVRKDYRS
Chain of PI3K (p110β/p85α) (P27986 whole entry partner): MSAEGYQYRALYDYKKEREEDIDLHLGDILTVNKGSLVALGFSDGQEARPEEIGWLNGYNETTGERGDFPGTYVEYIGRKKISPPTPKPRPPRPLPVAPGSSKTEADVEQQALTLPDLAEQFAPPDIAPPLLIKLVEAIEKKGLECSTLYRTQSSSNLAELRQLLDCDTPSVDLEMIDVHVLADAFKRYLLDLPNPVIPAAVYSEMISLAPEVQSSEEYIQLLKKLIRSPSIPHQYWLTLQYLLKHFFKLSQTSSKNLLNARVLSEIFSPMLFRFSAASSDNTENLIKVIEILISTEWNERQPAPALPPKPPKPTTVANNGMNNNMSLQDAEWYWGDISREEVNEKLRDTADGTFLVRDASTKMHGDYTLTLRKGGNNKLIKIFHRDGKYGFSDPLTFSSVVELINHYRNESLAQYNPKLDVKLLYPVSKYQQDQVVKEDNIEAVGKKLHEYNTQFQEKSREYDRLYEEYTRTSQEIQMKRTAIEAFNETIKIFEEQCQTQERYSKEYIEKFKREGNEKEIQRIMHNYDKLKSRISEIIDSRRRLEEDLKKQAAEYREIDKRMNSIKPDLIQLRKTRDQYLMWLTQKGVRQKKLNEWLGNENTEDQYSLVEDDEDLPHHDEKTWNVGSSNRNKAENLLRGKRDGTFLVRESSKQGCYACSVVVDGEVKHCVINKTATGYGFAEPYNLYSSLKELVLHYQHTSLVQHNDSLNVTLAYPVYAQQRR

[5] = tested on: AKT (S473) phosphorylation; assay: AKT; type: cell-based, human
U1242 cells [6] = assay: Scratch; type: cell-based, human
p53 phosphorylation = assay: IR-induced p53 phosphorylation, western blot, U1242 cells; type: cell-based, human; conditions: U1242, 3 μM, 5 Gy
[7] = tested on: AKT (S473) phosphorylation; assay: Insulin-stimulated AKT phosphorylation, A-T fibroblasts; type: cell-based, human; conditions: A-T cells, in response to insulin
mTOR = mTOR (Homo sapiens, UniProt P42345); assay: Millipore KinaseProfiler, mTOR; type: biochemical; conditions: 1 μM
PI3K (p110δ/p85α) = PI3K (p110δ/p85α) (Homo sapiens, UniProt O00329); assay: PI3-Kinase HTRF assay; type: biochemical; conditions: read-out: PI3K (p110δ/p85α) inhibited
Chain of PI3K (p110δ/p85α) (O00329 whole entry): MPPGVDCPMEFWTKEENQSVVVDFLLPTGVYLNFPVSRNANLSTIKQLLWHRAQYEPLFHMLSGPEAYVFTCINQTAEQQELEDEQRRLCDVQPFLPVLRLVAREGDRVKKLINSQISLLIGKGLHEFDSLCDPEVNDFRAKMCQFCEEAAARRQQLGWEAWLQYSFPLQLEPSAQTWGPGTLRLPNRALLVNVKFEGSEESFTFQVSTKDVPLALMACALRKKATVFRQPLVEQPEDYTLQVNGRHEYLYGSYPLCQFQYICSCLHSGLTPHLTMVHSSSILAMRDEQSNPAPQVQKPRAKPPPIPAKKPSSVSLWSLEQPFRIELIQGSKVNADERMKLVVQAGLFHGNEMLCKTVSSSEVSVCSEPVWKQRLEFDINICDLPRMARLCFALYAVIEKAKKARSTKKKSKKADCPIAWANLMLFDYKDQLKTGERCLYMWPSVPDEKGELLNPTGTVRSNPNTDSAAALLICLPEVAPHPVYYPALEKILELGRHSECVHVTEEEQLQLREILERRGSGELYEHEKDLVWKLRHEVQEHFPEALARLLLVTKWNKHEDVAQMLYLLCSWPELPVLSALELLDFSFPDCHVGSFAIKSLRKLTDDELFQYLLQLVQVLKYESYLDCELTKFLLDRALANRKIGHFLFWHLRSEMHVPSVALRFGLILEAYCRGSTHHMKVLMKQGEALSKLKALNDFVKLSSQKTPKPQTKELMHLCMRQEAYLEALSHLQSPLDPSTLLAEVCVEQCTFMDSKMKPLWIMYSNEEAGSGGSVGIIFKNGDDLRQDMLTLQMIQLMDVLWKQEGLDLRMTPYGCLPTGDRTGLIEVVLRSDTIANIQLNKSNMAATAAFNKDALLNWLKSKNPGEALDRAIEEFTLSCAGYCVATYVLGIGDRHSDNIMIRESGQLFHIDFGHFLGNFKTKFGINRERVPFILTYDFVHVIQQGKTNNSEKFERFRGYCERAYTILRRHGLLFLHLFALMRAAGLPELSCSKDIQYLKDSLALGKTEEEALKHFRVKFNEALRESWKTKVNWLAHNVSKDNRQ
Chain of PI3K (p110δ/p85α) (P27986 whole entry partner): as the sequence (P27986 whole entry partner) above

U1242 cells [8] = assay: Radiosurvival, Trypan blue/FACS assay, U1242; type: cell-based, human
[9] = tested on: CHK2 phosphorylation (T68); assay: IR-induced CHK2; type: cell-based, human; conditions: U1242, 3 μM, 5 Gy, up to 1 h after irradiation
U87 cells [10] = assay: Invasion through matrigel, U87; type: cell-based; conditions: Homo sapiens, U-87 MG, 48 h, read-out: inhibition of invasion through matrigel
U87 cells [11] = assay: Migration assay through 8 μm pore membranes, U87; type: cell-based; conditions: Homo sapiens, U-87 MG, 6 h, read-out: inhibition of migration
U1242 cells [12] = assay: Cell growth, AlamarBlue, U1242; type: cell-based, human; conditions: U1242, 3 μM, over a 5 day period
[13] = tested on: panel of 229 protein kinases; assay: Millipore KinaseProfiler panel; type: biochemical; conditions: 1 μM; Table S1
[14] = tested on: h-TERT-immortalized normal fibroblasts; assay: Radiosurvival, Trypan blue/FACS assay, normal fibroblasts; type: cell-based, human; conditions: 10 μM, 7 days post-IR
[15] = tested on: AKT (S473) phosphorylation; assay: Insulin-stimulated AKT phosphorylation, normal fibroblasts; type: cell-based, human; conditions: NFs
γ-H2AX = assay: IR-induced γ-H2AX, western blot, U1242 cells; type: cell-based, human; conditions: U1242, 3 μM, 5 Gy, especially at times ≤15 min
PI3K (p120γ) = PI3K (p120γ) (Homo sapiens, UniProt P48736); assay: PI3-Kinase HTRF assay; type: biochemical; conditions: read-out: PI3K (p120γ) inhibited
Chain of PI3K (p120γ) (P48736 whole entry): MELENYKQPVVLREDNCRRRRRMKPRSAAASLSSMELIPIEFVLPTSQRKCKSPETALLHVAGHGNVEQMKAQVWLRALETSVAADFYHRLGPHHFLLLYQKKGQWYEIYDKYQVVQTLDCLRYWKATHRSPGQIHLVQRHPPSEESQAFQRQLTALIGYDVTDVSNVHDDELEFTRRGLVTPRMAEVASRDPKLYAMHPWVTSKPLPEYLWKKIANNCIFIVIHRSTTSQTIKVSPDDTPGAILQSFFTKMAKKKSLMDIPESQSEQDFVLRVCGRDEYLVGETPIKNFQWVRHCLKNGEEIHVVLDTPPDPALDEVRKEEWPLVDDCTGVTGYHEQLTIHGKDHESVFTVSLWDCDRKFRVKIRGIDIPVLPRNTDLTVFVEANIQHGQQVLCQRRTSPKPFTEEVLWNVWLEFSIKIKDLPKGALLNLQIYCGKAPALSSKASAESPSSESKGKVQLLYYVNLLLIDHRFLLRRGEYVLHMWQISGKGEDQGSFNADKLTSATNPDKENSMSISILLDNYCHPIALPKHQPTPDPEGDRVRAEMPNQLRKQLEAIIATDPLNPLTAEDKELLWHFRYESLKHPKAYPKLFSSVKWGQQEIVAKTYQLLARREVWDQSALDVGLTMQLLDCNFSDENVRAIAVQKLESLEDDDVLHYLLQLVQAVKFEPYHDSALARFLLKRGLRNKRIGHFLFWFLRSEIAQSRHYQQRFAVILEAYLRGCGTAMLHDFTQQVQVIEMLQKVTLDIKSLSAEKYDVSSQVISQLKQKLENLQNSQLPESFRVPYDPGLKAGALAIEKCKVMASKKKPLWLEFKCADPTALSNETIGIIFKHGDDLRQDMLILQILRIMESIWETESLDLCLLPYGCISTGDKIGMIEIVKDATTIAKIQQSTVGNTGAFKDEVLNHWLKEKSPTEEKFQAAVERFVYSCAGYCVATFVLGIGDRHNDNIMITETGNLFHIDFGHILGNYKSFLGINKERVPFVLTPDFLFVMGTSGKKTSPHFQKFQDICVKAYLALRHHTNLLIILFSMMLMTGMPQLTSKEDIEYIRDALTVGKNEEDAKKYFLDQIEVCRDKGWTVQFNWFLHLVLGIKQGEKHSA

U1242 cells [16] = assay: Invasion through matrigel inserts, U1242; type: cell-based; conditions: Homo sapiens, 48 h, read-out: inhibition of invasion
[17] = tested on: AKT (S473) phosphorylation; assay: AKT; type: cell-based, human; conditions: U1242, 3 μM, 5 Gy
[18] = tested on: h-TERT-immortalized A-T fibroblasts; assay: Radiosurvival, Trypan blue/FACS assay, A-T fibroblasts; type: cell-based, human; conditions: 10 μM, 7 days post-IR
U87 cells [19] = assay: Radiosurvival, Trypan blue/FACS assay, U87; type: cell-based, human; conditions: U87, 3 μM, 4 Gy, alone

O=c1cc(-c2cccc3c2Sc2ccccc2S3)oc(N2CCOCC2)c1 [KU-55933, reference compound]
inhibition of IR-induced p53 (S15) phosphorylation ([1]; U87, 3 μM, 10 Gy): not at 3 μM
inhibition of IR-induced p53 (S15) phosphorylation ([1]; U87, 10 μM, 10 Gy): completely inhibited
effect on radiation-induced AKT T308 phosphorylation (AKT T308 phosphorylation): attenuated
effect on phosphorylation of (S136) BAD [2]: reduced
γ-H2AX levels (γ-H2AX (S139); U87, 10 μM, 1 h after irradiation): only partly reduced
effect on phosphorylation of (S9) GSK3β [3]: reduced
specificity using a panel of 60 protein kinases [4]: highly specific for the ATM kinase

C[C@@H]1CN(CC(=O)Nc2ccc3c(c2)Cc2cccc(-c4cc(=O)cc(N5CCOCC5)o4)c2S3)C[C@H](C)O1 [KU-60019, 2-((2R, 6S)-2,6-Dimethyl-morpholin-4-yl)-N-[5-(6-morpholin-4-yl-4-oxo-4H-pyran-2-yl)-9H-thioxanthen-2-yl]-acetamide]
inhibition at 1 µM (PI3K (p110β/p85α)): 9%
effect on radiation-induced increase in phospho-AKT (S473) ([5]; U87, 3 μM, 5 Gy): almost completely blocked
earliest time of effect on S473 dephosphorylation after addition of drug ([5]; U87, 3 μM, drug alone): 5 min
reduction in AKT phosphorylation ([5]; U87, insulin-stimulated): ~ 50%
reduction of basal AKT S473 phosphorylation ([5]; pooled data from several independent experiments (Fig. S1A)): 70%
inhibition at 3 µM (U1242 cells [6]; Homo sapiens, read-out: inhibition of migration (scratch assay)): ≥ 50%
rate of gap closure slower than untreated (U1242 cells [6]; U1242, 3 μM, at 10 h): 50%
inhibition of p53 phosphorylation (p53 phosphorylation): completely inhibited
inhibition of IR-induced p53 (S15) phosphorylation ([1]; U87, 1 μM, 10 Gy): partial inhibited
p53 (S15) phosphorylation blocked ([1]; U87, 1 μM, after IR): > 70%
inhibition of p53 phosphorylation ([1]; U87, 3 μM, 10 Gy, 15 min post-IR): completely inhibited
inhibition of IR-induced p53 (S15) phosphorylation ([1]; U87, 3 μM, 10 Gy): completely inhibited
effect on S473 phosphorylation [7]: did not affect
effect on phosphorylation of (S136) BAD [2]: reduced
mTOR inhibition (mTOR): not inhibited
inhibition at 1 µM (PI3K (p110δ/p85α)): 27%
radiosensitization (U1242 cells [8]; U1242, 3 μM, 4 days post-IR, level between that of U87 cells treated with 1 and 10 μM): radiosensitized
inhibition of radiation-induced CHK2 phosphorylation (T68) [9]: completely inhibited
inhibition at 3 µM (U87 cells [10]): ~60%
γ-H2AX levels (γ-H2AX (S139); U87, 3 μM, 15 min): reduced significantly
effect on H2AX phosphorylation (γ-H2AX (S139); U87, 10 Gy, 1 h after irradiation): little to no effect
inhibition at 10 µM (U87 cells [11]): ≥ 70%
suppression of growth (U1242 cells [12]): ~ 40%
non-specific target effects against a panel of 229 protein kinases [13]: little to no non-specific target effects
radiosensitization [14]: radiosensitized
reduction of AKT phosphorylation [15]: ~ 45%
inhibition of γ-H2AX (γ-H2AX): partially inhibited
inhibition at 1 µM (PI3K (p120γ)): 3%
inhibition at 3 µM (U1242 cells [16]): ~60%
effect on phosphorylation of (S9) GSK3β [3]: reduced
effect on basal and radiation-induced AKT S473 phosphorylation [17]: almost completely abrogated
radiosensitization [18]: not radiosensitized

C=C1[C@@H](O)[C@@H]2O[C@]3(CC[C@H](/C=C/[C@@H](C)[C@@H]4CC(C)=C[C@@]5(O[C@H](C[C@@](C)(O)C(=O)O)CC[C@H]5O)O4)O3)CC[C@H]2O[C@@H]1[C@@H](O)C[C@H](C)[C@H]1O[C@@]2(CCCCO2)CC[C@H]1C [OA, okadaic acid, reference compound]
increase of AKT S473 phosphorylation compared to untreated control ([5]; U87, OA by itself): > 2 fold
reduction of the effect of KU-60019 on S473 phosphorylation ([5]; U87, ≥30 nM OA with KU-60019 3 μM, 1 h): > 50%

O=C(NOCC1CC1)c1ccc(F)c(F)c1Nc1ccc(I)cc1Cl [PD184352, reference compound]
effect on radiosurvival (U1242 cells [8]; U1242, alone (Fig. S5)): slightly radioprotective
effect on IR-induced killing (U87 cells [19]): small but significant effect
